Measurements published in publication PMC6749524, “Identification of New Antifungal Agents Targeting Chitin Synthesis by a Chemical-Genetic Method” (Molecules, 2019).

Experiments:
Chs1 [1] = assay: iTRAQ protein level of chitin synthase; format: cell-based, S. cerevisiae; conditions: 25 μg/mL, 16 hours
Description: (§1) WT cells were grown to 10^5 CFU/mL in YPD medium and then treated with 25 μg/mL compounds or 0.25% DMSO for 16 hours at 30 °C. The cells were collected by centrifugation at 1500 g for 5 min and then stored at −80 °C. The frozen samples were grounded to a fine powder with liquid nitrogen and then transferred to an Eppendorf tube with phenol extraction buffer containing 1 mM Phenylmethanesulfonyl fluoride (PMSF). The samples were lysed with sonication, and proteins were extracted with phenol and then precipitated with ammonium acetate/methanol. The methanol was excluded by acetone, and the precipitates were collected by centrifugation at 12,000 g for 10 min at 4 °C. The precipitates were dried at room temperature for 3 min and dissolved in SDS lysis buffer for 2 hours. The samples were further centrifuged at 12,000 g for 10 min, and the collected supernatants were centrifuged again to remove precipitation completely. After the determination of protein concentration using Pierce^TM BCA Protein Assay kit (Thermo Scientific, Rockford, IL, USA), the protein samples were aliquoted for storage at −80 °C.
(§2) The Filter Aided Sample Preparation (FASP) digestion was performed according to a universal sample preparation method for proteome analysis. Peptides were labeled by iTRAQ using iTRAQ Reagents Multiplex Kit (AB SCIEX, Framingham, MA, USA) and then were fractionated by SCX chromatography using the AKTA Purifier system (GE Healthcare, Stockholm, Sweden). LC-MS/MS analysis was performed on Nano LC-1D plus (Eksigent, San Francisco, CA, USA) that was coupled to Triple TOF 6600 spectrometer (AB SCIEX, Framingham, MA, USA) for 50 min. The mass spectrometer was operated in positive ion mode. The MS/MS data were analyzed for protein identification and quantification using ProteinPilot software (v.5). The local false discovery rate was estimated with the integrated PSPEP tool in the ProteinPilot Software to be 1% after searching against a decoy concatenated UniProt S. cerevisiae protein database. For a protein showing differential expression, it must have been identified and quantified with at least one significant peptide, and the p-values of the proteins quantitation should be less than 0.05 and fold change ≥1.5.

Chs3 [2] = assay: iTRAQ protein level of chitin synthase; format: cell-based, S. cerevisiae; conditions: 25 μg/mL, 16 hours
Chs3, sequence (P29465 whole entry): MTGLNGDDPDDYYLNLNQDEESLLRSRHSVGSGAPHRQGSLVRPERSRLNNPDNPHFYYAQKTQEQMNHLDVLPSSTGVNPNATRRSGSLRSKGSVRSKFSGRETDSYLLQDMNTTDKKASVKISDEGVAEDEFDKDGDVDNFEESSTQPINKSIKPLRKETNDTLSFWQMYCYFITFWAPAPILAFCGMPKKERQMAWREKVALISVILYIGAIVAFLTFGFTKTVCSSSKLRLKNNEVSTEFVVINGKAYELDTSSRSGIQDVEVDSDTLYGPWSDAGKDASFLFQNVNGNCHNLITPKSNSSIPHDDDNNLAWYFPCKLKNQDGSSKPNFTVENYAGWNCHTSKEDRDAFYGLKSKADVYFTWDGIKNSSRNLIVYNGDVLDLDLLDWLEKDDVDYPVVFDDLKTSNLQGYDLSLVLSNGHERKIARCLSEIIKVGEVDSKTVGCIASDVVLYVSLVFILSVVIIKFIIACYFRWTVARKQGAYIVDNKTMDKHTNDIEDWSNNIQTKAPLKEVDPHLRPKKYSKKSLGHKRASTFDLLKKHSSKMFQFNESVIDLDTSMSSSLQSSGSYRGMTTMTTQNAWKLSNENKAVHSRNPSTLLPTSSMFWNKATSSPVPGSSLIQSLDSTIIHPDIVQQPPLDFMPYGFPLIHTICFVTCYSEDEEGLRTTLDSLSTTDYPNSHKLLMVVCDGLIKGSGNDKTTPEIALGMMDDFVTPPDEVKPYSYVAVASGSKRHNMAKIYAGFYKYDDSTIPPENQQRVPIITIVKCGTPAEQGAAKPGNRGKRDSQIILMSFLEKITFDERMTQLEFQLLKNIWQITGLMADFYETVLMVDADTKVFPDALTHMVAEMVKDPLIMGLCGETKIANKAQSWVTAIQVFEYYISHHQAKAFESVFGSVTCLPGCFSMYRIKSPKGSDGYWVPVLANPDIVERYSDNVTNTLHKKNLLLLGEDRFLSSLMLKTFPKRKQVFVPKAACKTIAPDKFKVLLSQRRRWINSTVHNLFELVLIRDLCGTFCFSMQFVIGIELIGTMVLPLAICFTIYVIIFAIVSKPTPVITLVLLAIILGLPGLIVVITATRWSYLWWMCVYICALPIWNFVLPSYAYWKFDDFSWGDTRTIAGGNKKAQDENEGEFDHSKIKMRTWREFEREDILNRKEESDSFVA
Description: as §1, §2

Chs2 = assay: iTRAQ protein level of chitin synthase; format: cell-based, S. cerevisiae; conditions: 25 μg/mL, 16 hours
Chs2, sequence (P14180 whole entry): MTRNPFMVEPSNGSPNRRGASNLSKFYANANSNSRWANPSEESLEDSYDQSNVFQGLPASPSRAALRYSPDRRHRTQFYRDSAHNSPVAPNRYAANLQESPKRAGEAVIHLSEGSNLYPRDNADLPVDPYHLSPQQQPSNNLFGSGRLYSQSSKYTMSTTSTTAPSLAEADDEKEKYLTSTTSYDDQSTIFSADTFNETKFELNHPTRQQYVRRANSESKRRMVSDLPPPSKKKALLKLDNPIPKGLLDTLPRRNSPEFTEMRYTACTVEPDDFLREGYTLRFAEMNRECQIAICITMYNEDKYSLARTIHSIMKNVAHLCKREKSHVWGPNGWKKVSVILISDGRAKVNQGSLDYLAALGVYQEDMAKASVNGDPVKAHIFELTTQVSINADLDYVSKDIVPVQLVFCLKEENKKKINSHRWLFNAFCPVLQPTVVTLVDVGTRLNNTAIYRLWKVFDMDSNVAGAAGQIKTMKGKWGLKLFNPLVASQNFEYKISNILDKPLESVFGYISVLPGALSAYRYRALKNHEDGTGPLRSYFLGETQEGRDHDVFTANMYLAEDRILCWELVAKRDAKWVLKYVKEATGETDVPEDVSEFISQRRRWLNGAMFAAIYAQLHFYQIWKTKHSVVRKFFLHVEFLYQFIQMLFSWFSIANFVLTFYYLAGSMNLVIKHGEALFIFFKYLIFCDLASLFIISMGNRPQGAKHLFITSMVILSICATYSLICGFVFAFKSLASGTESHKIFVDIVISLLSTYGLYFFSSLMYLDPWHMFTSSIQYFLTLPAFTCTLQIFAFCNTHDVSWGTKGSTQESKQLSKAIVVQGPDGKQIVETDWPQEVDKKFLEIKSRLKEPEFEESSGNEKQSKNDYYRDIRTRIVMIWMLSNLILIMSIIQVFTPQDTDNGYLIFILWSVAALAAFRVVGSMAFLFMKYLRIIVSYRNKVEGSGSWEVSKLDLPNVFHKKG
Description: as §1, §2

WT yeast cells (BY4741) = assay: Growth curve assay (OD600 over time); format: cell-based, S. cerevisiae
Description: (§3) Fresh cell cultures of WT yeast S. cerevisiae and Candida albicans ATCC10231 (OD600 = 0.8) were diluted in YPD medium (OD600 = 0.05). Then, IMB-D10 and IMB-F4 were added at concentrations ranging from 12.5 to 100 μg/mL. The cells were collected at different time points, and OD600 was measured with Multi-label Reader. Three experiments were performed independently, and the mean ± SD was calculated.

C. albicans = assay: Growth curve assay (OD600 over time); format: cell-based, Candida albicans; conditions: 50 μg/mL and 100 μg/mL, p < 0.05
Description: as §3

Chs3 [3] = biological target: T1, Chs3 (Saccharomyces cerevisiae, UniProt P29465); assay: Chitin synthase activity assay (WGA-coated plate); format: biochemical, S. cerevisiae
T1 construct: The pellet was resuspended in 50 mM Tris-HCl pH 7 and used as membrane protein of Chs3; endogenous in cells; host or cells: S. cerevisiae WT BY4741, crude membrane fraction
T1 sequence (P29465 whole entry): as the sequence (P29465 whole entry) above
Description: (§4) The inhibitory effect of compounds IMB-D10 and IMB-F4, on the activity of chitin synthases 1, 2, and 3, was measured by the procedure, described previously. In brief, WT yeast cells were grown in YPD medium to OD600 1–2. The cells were sedimented at 1500 g for 15 min at 4 °C and washed once with water. Then, the cells were resuspended in cold 100 mM Tris-HCl (pH 7.5) buffer containing protease inhibitors, and broken by 10 cycles of vortexing with acid-washed glass beads (1 min each). The broken cells were centrifuged for 15 min at 1500g to eliminate cell wall and debris. One volume of supernatant was placed on 2 volumes of 10% w/w sucrose in 100 mM Tris-HCl pH 7.5 and centrifuged at 55,000 g for 2 hours. The pellet was resuspended in 50 mM Tris-HCl pH 7 and used as membrane protein of Chs3. For Chs1 and Chs2, the membrane protein was pretreated with 80 μg/mL trypsin for 30 min at 30 °C.
(§5) To assess the enzyme activity of Chs1, the assay mixture contained 15 μg membrane protein, 5 mM MgCl2, 32 mM Tris-maleate (pH6.5), 0.2% digitonin, 40 mM N-acetyl-glucosamine (GlcNAc), and 4 mM UDP-GlcNAc. For Chs2, the mixture contained 15 μg pretreated membrane protein, 1.6 mM CoCl2, 32 mM Tris-HCl (pH 8), 40 mM GlcNAc, and 4 mM UDP-GlcNAc. For Chs3, the mixture contained pretreated membrane protein 15 μg, 1.6 mM CoCl2, 5 mM NiCl2, 32 mM Tris-HCl (pH 8), 40 mM GlcNAc, and 4 mM UDP-GlcNAc. Different concentrations of IMB-D10 and IMB-F4 were added to the mixture, and the reaction without UDP-GlcNAc was used to measure background absorbance. The 96-well plate coated with 50 μg/mL wheat germ agglutinin (WGA) was washed three times with water, and the reaction mixture was added into the wells and incubated at 30 °C for 60 min. The reaction was stopped by 50 mM EDTA, and the plate was emptied and washed with a large volume of water, followed by the addition of 200 μL 0.5 μg/mL WGA-HRP and incubation for 5 min at room temperature. The plate was washed 5 times with running distilled water. Then, the Tetramethylbenzidine (TMB) reagent was added, and the optical density at 600 nm (OD600) was immediately detected with Multilabel Reader (Envision, PE, Pontyclun, UK). All reactions were performed in triplicate.

Chs1 [4] = assay: Chitin synthase activity assay (WGA-coated plate); format: biochemical, S. cerevisiae; conditions: membrane protein from WT yeast
Description: as §4, §5

WT yeast cells = assay: Cell division morphology, light microscopy; format: cell-based, S. cerevisiae; conditions: treatment for 5 hours at 30 °C (IMB-D10 25 μg/mL)
Description: WT S. cerevisiae and C. albicans ATCC10231 were grown to 10^5 CFU/mL in YPD medium and then treated with IMB-D10 (12.5 or 25 μg/mL), IMB-F4 (12.5 or 25 μg/mL), or 0.25% DMSO for 3 and 5 hours at 30 ℃. Cells were collected by centrifugation at 1500 g for 5 min and resuspended in PBS. Some cells were examined using 100 × / 1.25 oil immersion objective (DM2500, Leica) and analyzed by Leica las. Some cells were stained with 100 μg/mL Calcofluor White M2R (CFW, Sigma-Aldrich, St. Louis, MO, USA for 3 min and washed three times with water. Then, the cells were examined under the UV light for fluorescent signals.

[5] = system: Escherichia coli ATCC 25922; assay: Growth inhibition of bacteria; format: cell-based; conditions: Escherichia coli ATCC 25922, at 100 μg/mL

Chs1, sequence (P08004 whole entry): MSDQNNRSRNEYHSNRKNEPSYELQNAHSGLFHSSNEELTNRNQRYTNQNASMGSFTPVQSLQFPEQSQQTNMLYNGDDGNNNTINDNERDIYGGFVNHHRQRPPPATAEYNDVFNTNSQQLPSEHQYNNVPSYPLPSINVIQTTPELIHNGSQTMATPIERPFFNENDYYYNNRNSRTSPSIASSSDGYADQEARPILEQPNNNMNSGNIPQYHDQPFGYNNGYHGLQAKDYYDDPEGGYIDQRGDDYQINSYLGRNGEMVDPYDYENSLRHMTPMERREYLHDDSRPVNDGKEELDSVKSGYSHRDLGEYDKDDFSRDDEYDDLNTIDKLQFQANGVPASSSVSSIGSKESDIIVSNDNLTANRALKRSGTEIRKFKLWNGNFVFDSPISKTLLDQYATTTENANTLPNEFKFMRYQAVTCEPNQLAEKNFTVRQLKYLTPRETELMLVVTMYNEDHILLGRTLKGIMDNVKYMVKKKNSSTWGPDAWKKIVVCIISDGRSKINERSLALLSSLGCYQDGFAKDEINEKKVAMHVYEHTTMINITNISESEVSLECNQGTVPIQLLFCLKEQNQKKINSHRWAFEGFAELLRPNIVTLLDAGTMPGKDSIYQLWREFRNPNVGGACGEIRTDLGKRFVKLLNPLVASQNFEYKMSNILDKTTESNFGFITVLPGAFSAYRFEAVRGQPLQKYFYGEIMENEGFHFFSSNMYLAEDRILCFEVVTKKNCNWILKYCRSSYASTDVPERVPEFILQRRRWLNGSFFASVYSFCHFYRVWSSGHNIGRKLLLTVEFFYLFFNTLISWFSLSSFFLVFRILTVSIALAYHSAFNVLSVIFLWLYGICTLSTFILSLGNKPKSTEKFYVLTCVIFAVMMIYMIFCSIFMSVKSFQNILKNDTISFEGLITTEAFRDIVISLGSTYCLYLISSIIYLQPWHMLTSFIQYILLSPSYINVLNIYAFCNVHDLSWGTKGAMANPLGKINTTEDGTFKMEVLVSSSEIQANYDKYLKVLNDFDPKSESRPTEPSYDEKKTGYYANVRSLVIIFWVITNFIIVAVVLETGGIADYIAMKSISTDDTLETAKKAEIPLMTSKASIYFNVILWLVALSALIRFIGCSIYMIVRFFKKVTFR

**Q.** Which results are given for COc1cc(OC)cc(C(=O)N(CCn2ccnc2)c2nc3ccc(OC)cc3s2)c1 [IMB-F4, N-(2-(1H-imidazol-1-yl)ethyl)-3,5-dimethoxy-N-(6-methoxybenzo[d]thiazol-2-yl)benzamide]?
**A.** relative abundance of Chs1 compared with cells treated with DMSO (Chs1 [1]): remained similar; relative abundance of Chs3 compared with cells treated with DMSO (Chs3 [2]): remained similar; relative abundance of Chs2 compared with cells treated with DMSO (Chs2): remained similar; growth of yeast cells over time (OD) (WT yeast cells (BY4741)): dose-dependent slow growth; growth of C. albicans over time (C. albicans): growth inhibition was observed after incubation for 6 hours; IC50 (Chs3 [3]): 6.76 µM; inhibition of Chs1 activity (Chs1 [4]): only inhibited the activity of Chs2 and Chs3; cell division / cell separation morphology (WT yeast cells): normal cell separation; growth inhibition [5]: did not inhibit the growth

**Q.** With “N-(2-(diethylamino) ethyl)-N-(7-hydroxy-4-methoxybenzo[d]thiazol -2-yl)-2-oxo-2H-chromene-3-carboxamide [IMB-D10]” as the molecule, how does the “relative abundance of Chs1 compared with cells treated with DMSO” value (Chs1 [1]) read?
**A.** Its value is 22 ± 5.10%.

**Q.** What about the “relative abundance of Chs3 compared with cells treated with DMSO” value (Chs3 [2]) of the same molecule?
**A.** The value was 18.33 ± 1.89%.

**Q.** What about the “relative abundance of Chs2 compared with cells treated with DMSO” value (Chs2) of the same molecule?
**A.** The value was 21.33 ± 6.18%.

**Q.** What about the “growth of yeast cells over time (OD)” value (WT yeast cells (BY4741)) of the same molecule?
**A.** Its value is “dose-dependent slow growth”.

**Q.** What about the “growth of C. albicans over time” value (C. albicans) of the same molecule?
**A.** The value was “reduced after 4 hours incubation”.

**Q.** What about the “IC50 Chs3” value (Chs3 [3]; membrane protein from WT yeast) of the same molecule?
**A.** The value was 13.08 ± 2.08 µg/mL.

**Q.** And the “IC50 Chs1” value (Chs1 [4])?
**A.** Its value is 17.46 ± 3.39 µg/mL.

**Q.** And the “cell division / cell separation morphology” value (WT yeast cells)?
**A.** Its value is “some yeast cells failed to divide”.

**Q.** And the growth inhibition [5]?
**A.** Its growth inhibition is “did not inhibit the growth”.
